In PMC9892271 (Journal of medicinal chemistry, 2023):
Where two headings read alike, the source gives them in different places.

Experiments:
NTMT1 = molecular target: T1, NTMT1 (Homo sapiens, UniProt Q9BV86)
T1 sequence (Q9BV86 1-222): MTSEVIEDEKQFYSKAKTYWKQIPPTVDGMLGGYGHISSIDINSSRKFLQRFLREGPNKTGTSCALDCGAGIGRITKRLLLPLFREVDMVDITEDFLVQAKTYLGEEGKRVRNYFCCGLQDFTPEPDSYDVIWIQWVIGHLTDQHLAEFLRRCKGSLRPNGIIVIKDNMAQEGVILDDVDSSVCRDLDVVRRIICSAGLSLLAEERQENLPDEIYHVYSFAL

[1] = tested on: me3-RCC1 and me3-SET in HEK293 cells; assay: cellular N-methylation level study; assay type: cell-based
[2] = tested on: me3-RCC1 and me3-SET in HEK293 cells; settings: cited from earlier work
GCS = molecular target: T2, GCS (Homo sapiens, UniProt Q16739); assay type: cell-based; settings: 30 nM, HCT116 cells
T2 sequence (Q16739 1-394): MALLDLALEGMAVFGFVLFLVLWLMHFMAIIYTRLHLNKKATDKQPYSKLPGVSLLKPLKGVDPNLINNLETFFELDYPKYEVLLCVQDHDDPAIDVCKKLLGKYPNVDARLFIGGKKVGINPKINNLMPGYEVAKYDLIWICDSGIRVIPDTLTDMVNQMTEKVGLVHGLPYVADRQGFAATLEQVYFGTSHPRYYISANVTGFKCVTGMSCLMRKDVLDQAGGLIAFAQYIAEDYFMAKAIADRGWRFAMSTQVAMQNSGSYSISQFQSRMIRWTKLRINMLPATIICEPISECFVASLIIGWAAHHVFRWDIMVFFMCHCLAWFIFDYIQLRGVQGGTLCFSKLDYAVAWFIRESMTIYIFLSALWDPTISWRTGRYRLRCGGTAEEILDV

PRMT1 = PRMT1 (Homo sapiens, UniProt Q99873); assay: SAHH-coupled selectivity assay, PRMT1; assay type: biochemical
SETD7 = molecular target: T3, SETD7 (Homo sapiens, UniProt Q8WTS6); assay: SAHH-coupled selectivity assay, SETD7; assay type: biochemical
T3 sequence (Q8WTS6 1-366): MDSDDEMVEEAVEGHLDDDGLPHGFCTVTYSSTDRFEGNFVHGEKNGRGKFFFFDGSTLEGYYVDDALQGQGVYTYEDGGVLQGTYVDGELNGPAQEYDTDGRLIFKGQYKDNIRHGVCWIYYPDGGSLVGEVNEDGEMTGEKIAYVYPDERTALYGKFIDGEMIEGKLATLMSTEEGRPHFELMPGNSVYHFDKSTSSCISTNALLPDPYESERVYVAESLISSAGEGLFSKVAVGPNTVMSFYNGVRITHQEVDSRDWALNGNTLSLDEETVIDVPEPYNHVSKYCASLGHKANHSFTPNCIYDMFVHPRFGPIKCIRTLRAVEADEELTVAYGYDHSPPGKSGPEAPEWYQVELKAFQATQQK

G9a = molecular target: T4, G9a (Homo sapiens, UniProt Q96KQ7); assay: SAHH-coupled selectivity assay, G9a; assay type: biochemical
T4 sequence (Q96KQ7 1-1210): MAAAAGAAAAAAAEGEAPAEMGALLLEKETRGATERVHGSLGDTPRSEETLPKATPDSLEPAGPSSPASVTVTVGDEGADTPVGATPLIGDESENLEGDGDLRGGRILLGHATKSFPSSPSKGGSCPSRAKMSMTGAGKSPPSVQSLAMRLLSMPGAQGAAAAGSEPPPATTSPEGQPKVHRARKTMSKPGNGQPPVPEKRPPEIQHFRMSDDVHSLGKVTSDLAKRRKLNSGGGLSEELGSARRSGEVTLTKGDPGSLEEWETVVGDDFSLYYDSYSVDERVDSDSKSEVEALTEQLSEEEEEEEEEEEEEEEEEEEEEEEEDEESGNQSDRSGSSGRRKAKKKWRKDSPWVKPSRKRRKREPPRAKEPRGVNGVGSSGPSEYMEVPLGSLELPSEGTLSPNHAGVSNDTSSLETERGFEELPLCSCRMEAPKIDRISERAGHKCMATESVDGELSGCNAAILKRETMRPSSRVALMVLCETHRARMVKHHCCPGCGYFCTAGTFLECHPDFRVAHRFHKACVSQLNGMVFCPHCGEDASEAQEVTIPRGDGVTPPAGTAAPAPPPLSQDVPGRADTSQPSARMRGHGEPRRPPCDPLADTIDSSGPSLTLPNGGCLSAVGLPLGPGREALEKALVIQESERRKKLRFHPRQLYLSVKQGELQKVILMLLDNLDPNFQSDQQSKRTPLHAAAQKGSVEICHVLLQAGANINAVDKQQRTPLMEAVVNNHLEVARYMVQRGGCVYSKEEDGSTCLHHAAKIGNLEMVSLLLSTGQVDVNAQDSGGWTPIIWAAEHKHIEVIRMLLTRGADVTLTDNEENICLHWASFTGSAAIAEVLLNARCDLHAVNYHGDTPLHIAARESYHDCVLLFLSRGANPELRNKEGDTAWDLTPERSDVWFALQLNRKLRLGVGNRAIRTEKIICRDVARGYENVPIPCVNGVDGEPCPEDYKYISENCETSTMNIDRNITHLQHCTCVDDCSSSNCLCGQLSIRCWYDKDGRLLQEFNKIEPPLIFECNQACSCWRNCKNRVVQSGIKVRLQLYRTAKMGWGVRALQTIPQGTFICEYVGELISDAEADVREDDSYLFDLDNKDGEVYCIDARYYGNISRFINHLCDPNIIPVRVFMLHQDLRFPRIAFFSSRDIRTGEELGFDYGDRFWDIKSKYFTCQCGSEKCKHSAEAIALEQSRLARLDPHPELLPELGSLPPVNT

MLL1 complex = MLL1 complex (Homo sapiens, UniProt Q03164); assay: SAM-dependent methyltransferase panel; assay type: biochemical; settings: single dose of 50 μM
NNMT = molecular target: T5, NNMT (Homo sapiens, UniProt P40261); assay: SAHH-coupled selectivity assay, NNMT; assay type: biochemical
T5 sequence (P40261 1-264): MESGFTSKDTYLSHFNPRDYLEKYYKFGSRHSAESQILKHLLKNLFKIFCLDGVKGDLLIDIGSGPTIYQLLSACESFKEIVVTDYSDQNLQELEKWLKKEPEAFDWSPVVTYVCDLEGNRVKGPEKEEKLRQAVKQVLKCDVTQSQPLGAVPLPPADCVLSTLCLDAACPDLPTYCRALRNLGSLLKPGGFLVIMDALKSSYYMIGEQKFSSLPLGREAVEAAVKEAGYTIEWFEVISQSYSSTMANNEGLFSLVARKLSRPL

NTMT2 = NTMT2 (Homo sapiens, UniProt Q5VVY1); assay: SAM-dependent methyltransferase panel; assay type: biochemical; settings: single dose of 50 μM
SAHH = SAHH (Homo sapiens, UniProt P23526); assay: selectivity assay, coupling enzyme SAHH; assay type: biochemical
TbPRMT7 = TbPRMT7 (Trypanosoma brucei brucei, UniProt Q582G4); assay: SAHH-coupled selectivity assay, PRMT7; assay type: biochemical
TbPRMT7, sequence (Q582G4 whole entry): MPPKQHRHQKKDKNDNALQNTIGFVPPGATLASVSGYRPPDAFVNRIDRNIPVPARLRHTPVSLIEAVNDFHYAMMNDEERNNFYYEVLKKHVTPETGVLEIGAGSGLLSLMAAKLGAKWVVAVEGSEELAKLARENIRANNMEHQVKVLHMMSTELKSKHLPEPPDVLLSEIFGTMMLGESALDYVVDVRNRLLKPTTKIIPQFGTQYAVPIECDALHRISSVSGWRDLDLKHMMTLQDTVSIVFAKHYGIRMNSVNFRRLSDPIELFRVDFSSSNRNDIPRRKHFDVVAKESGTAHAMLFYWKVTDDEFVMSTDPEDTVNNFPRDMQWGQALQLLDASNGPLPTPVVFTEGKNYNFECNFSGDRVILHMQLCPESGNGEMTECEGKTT

PRMT1, sequence (Q99873 whole entry, species assumed): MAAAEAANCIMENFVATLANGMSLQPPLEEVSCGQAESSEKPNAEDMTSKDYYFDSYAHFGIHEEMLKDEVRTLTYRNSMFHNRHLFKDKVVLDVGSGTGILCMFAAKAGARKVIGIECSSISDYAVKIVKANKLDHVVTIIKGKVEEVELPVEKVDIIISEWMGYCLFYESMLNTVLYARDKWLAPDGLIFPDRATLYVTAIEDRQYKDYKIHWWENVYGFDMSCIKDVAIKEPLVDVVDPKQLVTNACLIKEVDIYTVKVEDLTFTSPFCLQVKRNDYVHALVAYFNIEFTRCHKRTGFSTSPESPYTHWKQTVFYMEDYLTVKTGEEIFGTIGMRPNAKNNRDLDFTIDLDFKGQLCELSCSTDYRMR
SAHH, sequence (P23526 whole entry, species assumed): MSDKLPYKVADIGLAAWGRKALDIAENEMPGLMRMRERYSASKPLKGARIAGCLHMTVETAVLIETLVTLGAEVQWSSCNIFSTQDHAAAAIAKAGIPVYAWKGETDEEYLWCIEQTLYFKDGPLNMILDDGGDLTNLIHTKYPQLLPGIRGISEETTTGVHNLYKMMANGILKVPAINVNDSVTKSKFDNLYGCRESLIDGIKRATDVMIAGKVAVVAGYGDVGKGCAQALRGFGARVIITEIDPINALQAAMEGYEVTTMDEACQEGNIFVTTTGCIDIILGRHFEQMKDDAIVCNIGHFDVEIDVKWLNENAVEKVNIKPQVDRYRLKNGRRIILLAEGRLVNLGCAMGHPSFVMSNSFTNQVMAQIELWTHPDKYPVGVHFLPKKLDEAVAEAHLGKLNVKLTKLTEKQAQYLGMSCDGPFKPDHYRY
MLL1 complex, sequence (Q9C005 whole entry): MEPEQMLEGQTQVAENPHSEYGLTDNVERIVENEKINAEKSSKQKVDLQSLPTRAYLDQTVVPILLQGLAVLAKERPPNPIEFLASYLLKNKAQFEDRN
MLL1 complex, sequence (Q03164 3745-3969): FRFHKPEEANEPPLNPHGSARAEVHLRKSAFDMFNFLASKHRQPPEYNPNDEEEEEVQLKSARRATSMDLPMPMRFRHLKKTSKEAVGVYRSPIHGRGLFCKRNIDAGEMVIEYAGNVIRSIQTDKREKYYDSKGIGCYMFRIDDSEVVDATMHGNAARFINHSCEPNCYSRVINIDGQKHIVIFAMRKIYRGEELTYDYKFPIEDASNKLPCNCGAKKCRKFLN
MLL1 complex, sequence (Q15291 whole entry, further chain): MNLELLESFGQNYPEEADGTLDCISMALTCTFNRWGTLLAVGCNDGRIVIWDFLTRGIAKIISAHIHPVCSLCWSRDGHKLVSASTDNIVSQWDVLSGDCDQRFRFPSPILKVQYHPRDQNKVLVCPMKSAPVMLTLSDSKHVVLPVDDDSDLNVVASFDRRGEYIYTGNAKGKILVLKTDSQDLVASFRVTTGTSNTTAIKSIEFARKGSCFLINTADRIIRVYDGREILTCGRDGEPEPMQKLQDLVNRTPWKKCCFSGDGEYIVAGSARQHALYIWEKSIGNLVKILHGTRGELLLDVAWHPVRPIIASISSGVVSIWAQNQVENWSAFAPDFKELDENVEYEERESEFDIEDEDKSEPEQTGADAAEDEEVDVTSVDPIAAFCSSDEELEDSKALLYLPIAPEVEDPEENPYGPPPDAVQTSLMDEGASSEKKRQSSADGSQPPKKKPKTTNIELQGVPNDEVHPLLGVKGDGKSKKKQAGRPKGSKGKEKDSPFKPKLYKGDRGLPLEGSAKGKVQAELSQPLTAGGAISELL
MLL1 complex, sequence (Q9UBL3 96-628, further chain): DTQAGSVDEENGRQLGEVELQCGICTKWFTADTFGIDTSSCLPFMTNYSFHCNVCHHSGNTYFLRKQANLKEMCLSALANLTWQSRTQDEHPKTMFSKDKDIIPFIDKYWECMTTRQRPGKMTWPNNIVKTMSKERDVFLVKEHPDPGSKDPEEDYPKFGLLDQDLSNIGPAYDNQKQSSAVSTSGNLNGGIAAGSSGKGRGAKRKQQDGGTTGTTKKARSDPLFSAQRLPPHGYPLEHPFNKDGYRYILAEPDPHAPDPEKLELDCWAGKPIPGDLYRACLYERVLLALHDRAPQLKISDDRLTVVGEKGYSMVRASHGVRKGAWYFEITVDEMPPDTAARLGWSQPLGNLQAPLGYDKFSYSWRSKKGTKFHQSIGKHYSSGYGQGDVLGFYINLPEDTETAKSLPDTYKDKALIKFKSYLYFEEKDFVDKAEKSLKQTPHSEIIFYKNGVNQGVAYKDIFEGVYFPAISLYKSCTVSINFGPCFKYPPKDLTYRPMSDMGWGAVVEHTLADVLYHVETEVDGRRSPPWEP
NTMT2, sequence (Q5VVY1 whole entry): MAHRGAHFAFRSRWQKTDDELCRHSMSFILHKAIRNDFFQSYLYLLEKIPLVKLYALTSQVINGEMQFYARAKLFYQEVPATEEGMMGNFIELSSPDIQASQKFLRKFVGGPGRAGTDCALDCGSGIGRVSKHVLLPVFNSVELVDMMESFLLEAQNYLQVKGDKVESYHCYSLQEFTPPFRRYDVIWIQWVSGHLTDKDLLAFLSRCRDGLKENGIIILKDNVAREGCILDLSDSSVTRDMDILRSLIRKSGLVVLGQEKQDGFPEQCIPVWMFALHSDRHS

CC(C)(C(=O)N[C@@H]1CN2CCC1CC2)c1csc(-c2ccc(F)cc2)n1 [Compound 10, 2-(2-(4-Fluorophenyl)thiazol-4-yl)-2-methyl-N-(quinuclidin-3-yl)propenamide]
NTMT1 inhibition (in words) (NTMT1): did not show any inhibition

CC(C)(NC(=O)O[C@@H]1CN2CCC1CC2)c1csc(-c2cncnc2)n1 [YD2160]
change in me3-RCC1 or me3-SET ([1]; up to 30 μM): did not induce any change

CC(C)(NC(=O)O[C@@H]1CN2CCC1CC2)c1csc(-c2ccc(F)cc2)n1 [venglustat, (S)-quinuclidin-3-yl (2-(2-(4-Fluorophenyl)thiazol-4-yl)propan-2-yl)carbamate]
IC50 ([2]; cellular inhibition assay): 500 nM
IC50 ([2]; read-out: approximate IC50, me3-RCC1 and me3-SET, HEK293 cells): ~300 nM
inhibition of cellular GCS activity (GCS): significantly inhibits

CC(C)(NC(=O)O[C@@H]1CN2CCC1CC2)c1csc(-c2ccc(F)c(O)c2)n1 [GD433]
inhibition (PRMT1; 10 μM): no significant inhibition
inhibition (PRMT1; 30 μM): no significant inhibition
inhibition (PRMT1; 100 μM): 50%
inhibition (SETD7; 10 μM): no significant inhibition
inhibition (SETD7; 30 μM): no significant inhibition
inhibition (SETD7; 100 μM): did not exhibit inhibition
inhibition (G9a; 10 μM): no significant inhibition
inhibition (G9a; 30 μM): no significant inhibition
inhibition (G9a; 100 μM): did not exhibit inhibition
inhibition (MLL1 complex): ~ 25%
inhibition (NNMT; 10 μM): no significant inhibition
inhibition (NNMT; 30 μM): no significant inhibition
inhibition (NNMT; 100 μM): did not exhibit inhibition
inhibition (NTMT2): potently inhibited
inhibition (SAHH; 10 μM): no significant inhibition
inhibition (SAHH; 30 μM): no significant inhibition
inhibition (SAHH; 100 μM): did not exhibit inhibition
inhibition (TbPRMT7; 10 μM): no significant inhibition
inhibition (TbPRMT7; 30 μM): no significant inhibition
inhibition (TbPRMT7; 100 μM): did not exhibit inhibition

CCCN1CCC[C@H](OC(=O)NC(C)(C)c2csc(-c3ccc(F)cc3)n2)C1 [Compound 6, (S)-1-propylpiperidin-3-yl (2-(2-(4-Fluorophenyl)thiazol-4-yl)propan-2-yl)carbamate]
fold loss of potency compared to venglustat (NTMT1; NTMT1 IC50): over 40 fold

CC(C)(NC(=O)N[C@@H]1CN2CCC1CC2)c1csc(-c2ccc(F)cc2)n1 [Compound 9, 1-(2-(2-(4-Fluorophenyl)thiazol-4-yl)propan-2-yl)-3-(quinuclidin-3-yl)urea]
fold loss of potency compared to venglustat (NTMT1; NTMT1 IC50): > 100 fold

CC(C)(NC(=O)OCCN1CCCCC1)c1csc(-c2ccc(F)cc2)n1 [Compound 7, 2-(Piperidin-1-yl)ethyl (2-(2-(4-Fluorophenyl)thiazol-4-yl)propan-2-yl)carbamate]
fold reduction compared to 6 (NTMT1; NTMT1 IC50): > 5 fold

CC(C)(NC(=O)O[C@@H]1CN2CCC1CC2)c1csc(-c2ccc(Cl)c(O)c2)n1 [YD2200]
effect on me3-RCC1 and me3-SET ([1]; 1 μM): significantly reduces
IC50 ([1]; read-out: approximate IC50, me3-RCC1 and me3-SET): ~300 nM

CC(C)(NC(=O)Oc1cccnc1)c1csc(-c2ccc(F)cc2)n1 [Compound 8, Pyridin-3-yl (2-(2-(4-Fluorophenyl)thiazol-4-yl)propan-2-yl)carbamate]
NTMT1 inhibition (in words) (NTMT1): null activity

CN1CCC[C@H](OC(=O)NC(C)(C)c2csc(-c3ccc(F)cc3)n2)C1 [Compound 5, (S)-1-methylpiperidin-3-yl (2-(2-(4-Fluorophenyl)thiazol-4-yl)propan-2-yl)carbamate]
fold loss of potency compared to venglustat (NTMT1; NTMT1 IC50): over 40 fold
